Values quoted from earlier work in patent publication US20090306094A1 (Bristol-Myers Squibb Company, priority 2006, published 2009).
Where a name gives a salt, the structure may show the parent alone. Read-outs that look alike come from different tables or passages of the source.

Key:
[1] = test system: wild-type BCR-ABL
[2] = test system: imatinib-resistant BCR-ABL mutants; conditions: number of mutants / number tested
[3] = test system: imatinib-resistant BCR-ABL mutants
[4] = test system: cells expressing imatinib-resistant BCR-ABL kinases
[5] = test system: imatinib-resistant BCR-ABL mutants; remark: listed apart in the source
[6] = target: T1, BCR-ABL (Homo sapiens, UniProt P00519)
T1 construct: BCR (N-terminal part of breakpoint cluster region protein, P11274); the other entry of the earlier key: BCR (P11274, Breakpoint cluster region protein)
T1 sequence (P00519 242-493 limits assumed): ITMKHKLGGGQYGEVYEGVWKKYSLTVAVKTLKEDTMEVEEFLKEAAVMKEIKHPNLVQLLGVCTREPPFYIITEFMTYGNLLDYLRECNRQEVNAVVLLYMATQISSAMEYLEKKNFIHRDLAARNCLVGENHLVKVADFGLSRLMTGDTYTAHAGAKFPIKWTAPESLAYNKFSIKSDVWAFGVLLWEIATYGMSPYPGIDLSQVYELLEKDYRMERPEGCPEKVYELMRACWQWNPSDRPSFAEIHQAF

[7] = test system: BCR-ABL expressing leukemic cells
[8] = test system: CML cell
[9] = test system: Crkl phosphorylation in primary CML patient cells; conditions: correlated with dephosphorylation of BCR-ABL
[10] = test system: CML patients
[11] = test system: leukemic versus normal hematopoietic cells

SMILES: Cc1cn(-c2cc(NC(=O)c3ccc(C)c(Nc4nccc(-c5cccnc5)n4)c3)cc(C(F)(F)F)c2)cn1 [AMN107]
- imatinib-resistant BCR-ABL mutants against which significantly active [2]: 32/33

SMILES: CP(C)(=O)c1ccc(Nc2nc(C3CCCC3)nc3c2ncn3CCc2cccc(O)c2)cc1 [AP23464]
- inhibition of imatinib-resistant BCR-ABL mutants [3]: inhibit imatinib-resistant BCR-ABL mutants

SMILES: COCCNCCOc1ccc(-n2cc(-c3cccc(OC)c3)c3c(N)ncnc32)cc1 [CGP76030]
- growth and survival of cells [4]: inhibit the growth and survival

SMILES: Cc1ccc(NC(=O)c2ccc(CN3CC[C@H](N(C)C)C3)c(C(F)(F)F)c2)cc1Nc1nccc(-c2cncnc2)n1 [NS-187]
- inhibition of imatinib-resistant BCR-ABL mutants [5]: inhibit imatinib-resistant BCR-ABL mutants

SMILES: Cc1cc(Nc2ncc3cc(-c4c(Cl)cccc4Cl)c(=O)n(C)c3n2)ccc1F [PD180970]
- inhibition of BCR-ABL [6]: inhibit BCR-ABL
- apoptosis [7]: induce apoptosis

SMILES: COc1cc(Nc2c(C#N)cnc3cc(OCCCN4CCN(C)CC4)c(OC)cc23)c(Cl)cc1Cl [SKI-606]
- antiproliferative activity [8]: potent antiproliferative activity

SMILES: Cc1ccc(NC(=O)c2ccc(CN3CCN(C)CC3)cc2)cc1Nc1nccc(-c2cccnc2)n1 [imatinib, imatinib mesylate]
- Crkl phosphorylation [9]: inhibited in a dose-dependent manner
- estimated 2-year incidence of resistance ([10]; blastic phase): 80%
- estimated 2-year incidence of resistance ([10]; chronic phase post-interferon-α failure): 10%
- selectivity for leukemic versus normal hematopoietic cells [11]: highly selective
